According to ChEMBL document CHEMBL4339249, “Antimicrobial Dolabellanes and Atranones from a Marine-Derived Strain of the Toxigenic Fungus Stachybotrys chartarum” (2019):
Active and inactive are the calls of the source. The calls are words filed in the database; no cut-off is given here.

Tests used:
Acinetobacter baumannii = assay: Antimicrobial activity against Acinetobacter baumannii ATCC 19606 assessed as inhibition of microbial growth incubated for 16 hrs by broth microdilution method; assay type: functional; conditions: ATCC 19606, 16 h
Klebsiella pneumoniae = assay: Antimicrobial activity against Klebsiella pneumoniae ATCC 700603 assessed as inhibition of microbial growth incubated for 16 hrs by broth microdilution method; assay type: functional; conditions: Klebsiella pneumoniae, 700603, 16 h
Pseudomonas aeruginosa = assay: Antimicrobial activity against Pseudomonas aeruginosa ATCC 15442 assessed as inhibition of microbial growth incubated for 16 hrs by broth microdilution method; assay type: functional; conditions: ATCC 15442, 16 h
Escherichia coli = assay: Antimicrobial activity against ESBL-producing Escherichia coli ATCC 35218 assessed as inhibition of microbial growth incubated for 16 hrs by broth microdilution method; assay type: functional; conditions: ATCC 35218, 16 h
Candida albicans [1] = assay: Antimicrobial activity against Candida albicans ATCC 10231 assessed as inhibition of microbial growth incubated for 16 hrs by broth microdilution method; assay type: functional; conditions: ATCC 10231, 16 h
Candida albicans [2] = assay: Induction of morphological changes in Candida albicans ATCC 10231 assessed as induction of deformed cells at 8 ug/ml incubated for 12 hrs by transmission electron microscopy; assay type: functional, organism-based
Candida albicans [3] = assay: Induction of morphological changes in Candida albicans ATCC 10231 assessed as induction of cell contents leakage at 16 ug/ml incubated for 12 hrs by transmission electron microscopy; assay type: functional, organism-based
Candida albicans [4] = assay: Induction of morphological changes in Candida albicans ATCC 10231 assessed as induction of wrinkled cells at 8 ug/ml incubated for 12 hrs by transmission electron microscopy; assay type: functional, organism-based
Candida albicans [5] = assay: Induction of morphological changes in Candida albicans ATCC 10231 assessed as induction of vacuoles formation in cytoplasm at 16 ug/ml incubated for 12 hrs by transmission electron microscopy; assay type: functional, organism-based
Enterococcus faecalis = assay: Antimicrobial activity against Enterococcus faecalis ATCC 29212 assessed as inhibition of microbial growth incubated for 16 hrs by broth microdilution method; assay type: functional; conditions: ATCC 29212, 16 h
Candida albicans [6] = assay: Induction of morphological changes in Candida albicans ATCC 10231 assessed as induction of cell membrane deformation at 16 ug/ml incubated for 12 hrs by transmission electron microscopy; assay type: functional, organism-based
Candida albicans [7] = assay: Induction of morphological changes in Candida albicans ATCC 10231 assessed as induction of cell wall deformation at 16 ug/ml incubated for 12 hrs by transmission electron microscopy; assay type: functional, organism-based
Candida albicans [8] = assay: Induction of morphological changes in Candida albicans ATCC 10231 assessed as induction of cell wall thinning at 8 ug/ml incubated for 12 hrs by transmission electron microscopy; assay type: functional, organism-based
Candida albicans [9] = assay: Induction of morphological changes in Candida albicans ATCC 10231 assessed as induction of irregular cell shape at 8 ug/ml incubated for 12 hrs by transmission electron microscopy; assay type: functional, organism-based
Staphylococcus aureus = assay: Antimicrobial activity against methicillin-resistant Staphylococcus aureus ATCC 43300 assessed as inhibition of microbial growth incubated for 16 hrs by broth microdilution method; assay type: functional; conditions: ATCC 43300, 16 h
Candida albicans [10] = assay: Induction of morphological changes in Candida albicans ATCC 10231 assessed as induction of agglutination in cytoplasm at 8 ug/ml incubated for 12 hrs by transmission electron microscopy; assay type: functional, organism-based

SMILES | MIC (Acinetobacter baumannii) [µg/mL] | MIC (Klebsiella pneumoniae) [µg/mL] | MIC (Pseudomonas aeruginosa) [µg/mL] | MIC (Escherichia coli) [µg/mL] | MIC (Candida albicans [1]) [µg/mL] | Activity (Candida albicans [2]) | Activity (Candida albicans [3]) | Activity (Candida albicans [4]) | Activity (Candida albicans [5]) | MIC (Enterococcus faecalis) [µg/mL] | Activity (Candida albicans [6]) | Activity (Candida albicans [7]) | Activity (Candida albicans [8]) | Activity (Candida albicans [9]) | MIC (Staphylococcus aureus) [µg/mL] | Activity (Candida albicans [10])
CO/N=C(\C(=O)N[C@@H]1C(=O)N2C(C(=O)O)=C(CSc3nc(=O)c(O)nn3C)CS[C@H]12)c1csc(N)n1 [CEFTRIAXONE] | 8 | 2 | 2 | 8 | – | – | – | – | – | – | – | – | – | – | – | –
NCC[C@H](O)C(=O)N[C@@H]1C[C@H](N)[C@@H](O[C@H]2O[C@H](CN)[C@@H](O)[C@H](O)[C@H]2O)[C@H](O)[C@H]1O[C@H]1O[C@H](CO)[C@@H](O)[C@H](N)[C@H]1O [AMIKACIN] | 2 | 8 | 2 | 4 | – | – | – | – | – | – | – | – | – | – | – | –
OC(Cn1cncn1)(Cn1cncn1)c1ccc(F)cc1F [FLUCONAZOLE] | – | – | – | – | 1 | – | – | – | – | – | – | – | – | – | – | –
CC(=O)C[C@H]1/C=C(\C)[C@@H](O)C[C@H]2C(C(C)C)=CC(=O)O[C@]2(C)CC[C@@H](C)C1=O | ≥ 100 | ≥ 100 | ≥ 100 | ≥ 100 | 8 | Active | Active | Active | Active | 16 | Active | Active | Active | Active | 32 | Active
C/C1=C\[C@H](O)C[C@]2(C)O[C@H]2C[C@@]2(C)OC(=O)C=C(C(C)C)[C@@H]2CC1 | 16 | ≥ 100 | ≥ 100 | ≥ 100 | ≥ 100 | – | – | – | – | ≥ 32 | – | – | – | – | ≥ 100 | –
C/C1=C\[C@H](O)C[C@]2(C)O[C@H]2C[C@@]2(C)C(=O)C=C(C(C)C)[C@@H]2CC1 | ≥ 100 | ≥ 100 | ≥ 100 | ≥ 100 | ≥ 100 | – | – | – | – | ≥ 100 | – | – | – | – | ≥ 100 | –
C/C1=C\[C@H]2/C(=C(/C)CC[C@@]3(CO)C(=O)C=C(C(C)C)[C@@H]3CC1)OC(=O)[C@@H]2[C@H](C)O | ≥ 100 | ≥ 100 | ≥ 100 | ≥ 100 | ≥ 100 | – | – | – | – | ≥ 100 | – | – | – | – | ≥ 100 | –
COC(=O)[C@H]1[C@H](C)O[C@@]2(O)[C@H](C)CC[C@@]3(C)OC(=O)C=C(C(C)C)[C@@H]3C[C@H](O)/C(C)=C/[C@H]12 | ≥ 100 | ≥ 100 | ≥ 100 | ≥ 100 | ≥ 100 | – | – | – | – | ≥ 100 | – | – | – | – | ≥ 100 | –
CN[C@H](CC(C)C)C(=O)N[C@H]1C(=O)N[C@@H](CC(N)=O)C(=O)N[C@H]2C(=O)N[C@H]3C(=O)N[C@H](C(=O)N[C@H](C(=O)O)c4cc(O)cc(O)c4-c4cc3ccc4O)[C@H](O)c3ccc(c(Cl)c3)Oc3cc2cc(c3O[C@@H]2O[C@H](CO)[C@@H](O)[C@H](O)[C@H]2O[C@H]2C[C@](C)(N)[C@H](O)[C@H](C)O2)Oc2ccc(cc2Cl)[C@H]1O [VANCOMYCIN] | – | – | – | – | – | – | – | – | – | 0.5 | – | – | – | – | – | –
C/C1=C\[C@H](O)[C@H](O)C/C(C)=C/[C@@]2(C)OC(=O)C=C(C(C)C)[C@@H]2CC1 | ≥ 100 | ≥ 100 | ≥ 100 | ≥ 100 | ≥ 100 | – | – | – | – | ≥ 100 | – | – | – | – | ≥ 100 | –
